Experimental data from patent US20250145608A1, “KRAS DEGRADING COMPOUNDS COMPRISING ANNULATED 2-AMINO-3-CYANO THIOPHENES” (Boehringer Ingelheim Int'l GmbH Corp., priority 2021, published 2025).
Read-outs that look alike come from different tables or passages of the source.

Tests used:
Type in all cases: cell-based
NCI-H358 cells = experiment: NCI-H358 CTG proliferation assay (120 h) (NSCLC, G12C); details: Homo sapiens
Outline: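 NCI-H358 cells (KRAS G12C) were seeded at 2000/well (assay 1) or 200/well (assay 2) in RPMI-1640 + 10% FCS and dosed with a logarithmic series, DMSO-normalized. After 120 h, viability was read by CellTiter-Glo luminescence as percent of DMSO control, with a T0 read at dosing. IC50 came from a four-parameter fit.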

AsPC-1 cells = experiment: AsPC-1 CTG proliferation assay (120 h) (pancreatic cancer, G12D); details: Homo sapiens, ASPC1, AsPC-1 proliferation
Protocol: AsPC-1 CTG Proliferation Assay (120 h) (Pancreatic Cancer, G12D)
The CTG assay is designed to measure quantitatively the proliferation of AsPC-1 cells (ATCC […]), using the CellTiter Glow Assay Kit (Promega G7571). Cells are grown in RPMI medium (ATCC) supplemented with Fetal Calf Serum (Life Technologies, Gibco BRL, Cat. No. 10270-106). On “day 0” 2000 AsPC-1 cells are seeded in 60 μL RPMI ATCC+10% FCS+ Penstrep in a 384-well plate, flat and clear bottom (Greiner, PNr. 781091). Cells are then incubated in the plates at 37° C. in a CO2 incubator overnight. On day 1, compounds (10 mM stock in DMSO) are added with the ECHO acoustic liquid handler system (Beckman Coulter), including DMSO controls. Plates are incubated for 120 h, and cell viability is measured using CellTiter-Glo luminescent cell viability reagent (Promega product code G7570). Viability (stated as percent of control) is defined as relative luminescence units RLU of each well divided by the RLU of cells in DMSO controls. IC50 values are determined from viability measurements by non-linear regression using a four-parameter model.

KRAS4B G13D = molecular target: T1, KRAS4B G13D (Homo sapiens, UniProt P01116, G13D); experiment: HiBit KRAS4B mutant spectrum degradation assay, KRAS4B G13D in GP5d cells (18 h); details: KRAS mutation G13D
T1 construct: HiBit; expressed in transfected cells; host or cells: GP5d cells (ECACC 95090715), stably transduced with lentivirus, CMV promoter
Excerpt: (§1) The therapeutically relevant mutant KRAS constructs (WT, G12C, G12D, G12V, G13D) were obtained by site directed mutagenesis using a KRAS4B WT cDNA construct as a template. GP5d cells (ECACC Cat. No. 95090715) were transduced with lentiviral vectors expressing mutant KRAS4B cDNA under control of a CMV promoter. Stably transduced cells were selected using a neomycin selectable marker encoded on the construct.
(§2) To assess PROTAC-mediated degradation of various KRAS mutants, GP5d cells stably transduced with KRAS4B constructs as described above were seeded at 25000 cells per well in 100 μL Dulbecco's Modified Eagle medium (Sigma cat. no. D6429) supplemented with 10% fetal calf serum into white bottom opaque 96 well plates (Perkin Elmer cat no. 5680). Plates were incubated at 37° C., 5% CO2 in a humidified incubator over night to allow the cells to adhere. […] Plates were further incubated at 37° C. for 18 hours. Following incubation, 100 μL per well Promega Nano-Glo HiBit lytic detection reagent mix (Promega Nano-Glo HiBit Lytic Detection System #N3050), prepared according to the manufacturer's instructions in the kit, were added. To allow for adequate cell lysis, plates were incubated on an orbital shaker for 15 min and further incubated 30 min at room temperature. Upon completion of cell lysis, luminescence was measured using an Envision plate reader using the Ultrasensitive Luminescence Protocol for 96 well plates. Luminescence levels were normalized by the values obtained with DMSO-treated samples and plotted as percent of DMSO control. DC50 values were computed using a four parametric logistic model and are reported in nM in Table 65 for representative example (Ex.) compounds of the invention. Dmax values represent the maximal extent of degradation observed and is stated as percent of control (% Ctrl.) treatments in Table 66 for representative example (Ex.) compounds of the invention.

GP2D cells = experiment: GP2D proliferation assay (120 h) (colorectal cancer, G12D)
Protocol: GP2D Proliferation Assay (120 h) (Colorectal Cancer, G12D)
GP2D cells (ATCC No. CRL-5807) are dispensed into white 384-well plates, flat and white bottom (Perkin Elmer, 6007680) at a density of 500 cells per well in 40 μl DMEM (Sigma, D6429)+1× GlutaMAX (Gibco, 35050038)+10% FCS (fetal calf serum). […] Compounds (10 mM stock in DMSO) are added at logarithmic dose series using the HP Digital Dispenser D300 (Tecan), including DMSO controls and normalizing for added DMSO. For the TO time point measurement, untreated cells are analyzed at the time of compound addition. Plates are incubated for 120 h, and cell viability is measured using CellTiter-Glo luminescent cell viability reagent (Promega product code G7570). Viability (stated as percent of control) is defined as relative luminescence units RLU of each well divided by the RLU of cells in DMSO controls. IC50 values are determined from viability measurements by non-linear regression using a four parameter model.

KRAS4B WT = molecular target: T2, KRAS4B WT (Homo sapiens, UniProt P01116); experiment: HiBit KRAS4B mutant spectrum degradation assay, KRAS4B WT in GP5d cells (18 h); details: KRAS mutation G12WT
T2 construct: HiBit; expressed in transfected cells; host or cells: GP5d cells (ECACC 95090715), stably transduced with lentivirus, CMV promoter
Excerpt: as §1, §2

KRAS4B G12V = molecular target: T3, KRAS4B G12V (Homo sapiens, UniProt P01116, G12V); experiment: HiBit KRAS4B mutant spectrum degradation assay, KRAS4B G12V in GP5d cells (18 h); details: KRAS mutation G12V
T3 construct: HiBit; expressed in transfected cells; host or cells: GP5d cells (ECACC 95090715), stably transduced with lentivirus, CMV promoter
Excerpt: as §1, §2

KRAS4B G12D = molecular target: T4, KRAS4B G12D (Homo sapiens, UniProt P01116, G12D); experiment: HiBit KRAS4B mutant spectrum degradation assay, KRAS4B G12D in GP5d cells (18 h); details: KRAS mutation G12D
T4 construct: HiBit; expressed in transfected cells; host or cells: GP5d cells (ECACC 95090715), stably transduced with lentivirus, CMV promoter
Excerpt: as §1, §2

[1] = assay 1, read-out: H358 (assay 1) IC50
[2] = assay 2, read-out: H358 (assay 2) IC50

T2 sequence (P01116 1-188 isoform P01116-2): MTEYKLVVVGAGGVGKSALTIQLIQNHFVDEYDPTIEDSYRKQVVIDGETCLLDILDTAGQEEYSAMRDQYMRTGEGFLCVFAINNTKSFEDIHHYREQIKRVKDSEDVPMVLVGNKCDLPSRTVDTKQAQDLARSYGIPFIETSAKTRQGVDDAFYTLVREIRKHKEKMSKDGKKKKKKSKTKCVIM
T3 sequence (P01116 1-188 isoform P01116-2 G12V): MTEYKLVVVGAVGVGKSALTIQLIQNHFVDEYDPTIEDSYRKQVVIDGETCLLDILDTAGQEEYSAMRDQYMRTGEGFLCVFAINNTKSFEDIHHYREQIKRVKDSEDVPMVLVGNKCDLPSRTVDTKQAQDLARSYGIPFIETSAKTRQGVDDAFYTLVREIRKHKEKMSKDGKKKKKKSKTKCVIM
T1 sequence (P01116 1-188 isoform P01116-2 G13D): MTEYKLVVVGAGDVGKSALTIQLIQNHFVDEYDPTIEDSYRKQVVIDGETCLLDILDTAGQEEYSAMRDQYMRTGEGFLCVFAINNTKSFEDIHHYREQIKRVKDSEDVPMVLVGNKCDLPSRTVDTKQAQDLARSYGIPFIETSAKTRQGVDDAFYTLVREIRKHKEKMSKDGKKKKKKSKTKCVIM
T4 sequence (P01116 1-188 isoform P01116-2 G12D): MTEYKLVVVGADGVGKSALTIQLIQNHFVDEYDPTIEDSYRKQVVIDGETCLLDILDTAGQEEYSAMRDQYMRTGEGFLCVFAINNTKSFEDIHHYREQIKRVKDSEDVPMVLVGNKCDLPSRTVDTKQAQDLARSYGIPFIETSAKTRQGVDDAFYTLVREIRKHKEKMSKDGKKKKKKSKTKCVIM

Row | SMILES | IC50 (NCI-H358 cells; [1]) | IC50 (NCI-H358 cells; [2]) | IC50 (AsPC-1 cells) | DC50 (KRAS4B G13D) | Dmax at 18 h (KRAS4B G13D) | IC50 (GP2D cells) | DC50 (KRAS4B WT) | Dmax at 18 h (KRAS4B WT) | DC50 (KRAS4B G12V) | Dmax at 18 h (KRAS4B G12V) | DC50 (KRAS4B G12D) | Dmax at 18 h (KRAS4B G12D)
1 | Cc1ncsc1-c1ccc([C@@H](NC(=O)[C@@H]2C[C@@H](O)CN2C(=O)[C@H](C(C)C)n2cc(OCCCN3CCCN(c4nccc(-c5noc([C@@]6(C)CCCc7sc(N)c(C#N)c76)n5)n4)[C@@H](C)C3)nn2)[C@H](O)C(C)C)cc1 (single isomer, unassigned) [I-43] | 50.8 nM | 8.1 nM | 52.1 nM | 1.1 nM | 90.4 % Ctrl. | 6.6 nM | 0.5 nM | 98.1 % Ctrl. | 2.6 nM | 89.4 % Ctrl. | 1.3 nM | 95.8 % Ctrl.
2 | Cc1ncsc1-c1ccc(CNC(=O)[C@@H]2C[C@@H](O)CN2C(=O)[C@H](c2cc(OCCCN3CCCN(c4nccc(-c5noc([C@@]6(C)CCCc7sc(N)c(C#N)c76)n5)n4)[C@@H](C)C3)no2)C(C)C)cc1 (single isomer, unassigned) [I-24] | 1070 nM | 1440 nM | 1800 nM |  |  |  |  |  |  |  |  | 
3 | CC(C)C(C(=O)N1C[C@H](O)C[C@H]1C(=O)NCc1ccc(C#N)cc1)c1cc(OCCCCN2CCCN(c3nccc(-c4noc([C@@]5(C)CCCc6sc(N)c(C#N)c65)n4)n3)[C@@H](C)C2)no1 (stereo partly drawn) [I-16] | 231 nM | 85.5 nM | 169 nM |  |  | 33.3 nM |  |  |  |  |  | 
4 | Cc1ncsc1-c1ccc([C@@H](NC(=O)[C@@H]2C[C@@H](O)CN2C(=O)[C@H](C(C)C)n2cc(OCCCCN3CCCN(c4nccc(-c5noc([C@@]6(C)CCCc7sc(N)c(C#N)c76)n5)n4)[C@@H](C)C3)nn2)[C@H](C)O)cc1 (single isomer, unassigned) [I-41] | 59.6 nM | 14.9 nM | 42 nM | 0.8 nM | 89.7 % Ctrl. | 7.7 nM | 0.5 nM | 98.0 % Ctrl. | 2.5 nM | 90.8 % Ctrl. | 1.3 nM | 96.1 % Ctrl.
5 | Cc1ncsc1-c1ccc([C@H](CO)NC(=O)[C@@H]2C[C@@H](O)CN2C(=O)[C@H](C(C)C)n2cc(OC(C)CCCN3CCCN(c4nccc(-c5noc([C@@]6(C)CCCc7sc(N)c(C#N)c76)n5)n4)[C@@H](C)C3)nn2)cc1 (stereo partly drawn) [I-31] | 159 nM |  | 183 nM | 2.7 nM | 89.7 % Ctrl. | 26.1 nM | 1.7 nM | 97.5 % Ctrl. | 8.7 nM | 89.2 % Ctrl. | 3.3 nM | 95.8 % Ctrl.
6 | Cc1ncsc1-c1ccc(CNC(=O)[C@@H]2C[C@@H](O)CN2C(=O)C(c2cc(OCCCCN3CCCN(c4nccc(-c5cc([C@@]6(C)CCCc7sc(N)c(C#N)c76)on5)n4)[C@@H](C)C3)no2)C(C)C)cc1 (stereo partly drawn) [I-4] | 445 nM | 196 nM | 372 nM |  |  |  |  |  |  |  |  | 
